Measurements as given in patent publication US10844102B2, “Peptides, compositions, and methods for stimulating subcutaneous adipogenesis” (The Regents of the University of California, priority 2014, dated 2020).
“Also recorded” adds a separate entry of the source. Like-named read-outs stand apart in the source and are kept apart here.

Tests used:
[1] = test system: rat mesenchymal stem cells; test: Assay 1: adipogenesis, Oil Red O staining (transdifferentiation of fibroblast lineages into adipocytes); format: cell-based; conditions: for adipogenic activity in Assay 1: Assay 1, Oil Red O, concentration not given; for adipogenesis quantified by Oil Red O staining, fold change relative to the negative control: three weeks
Experimental: Reagents: (1) 3-isobutyl-1-methylxanthine (IBMX) solution: 0.5M in DMSO; (2) Insulin Solution: 10 mg/mL recombinant human insulin; (3) Dexamethasone Solution in 10 mM in ethanol; (4) Oil Red O (0.36% in 60% isopropanol).
Adipogenesis Initiation Media: mesenchymal stem cell expansion media/0.5 mM IBMX/1 μM dexamethasone. Mesenchymal stem cell expansion media is commercially available from Millipore. The IBMX Solution was diluted 1:1000 and the Dexamethasone Solution was diluted 1:10,000 in expansion media containing antibiotics and antimycotics. The prepared media was stored at 4° C.
Adipogenesis Progression Media for positive control: mesenchymal stem cell expansion media/10 μg/mL insulin. The Insulin Solution was diluted 1:1000 in the expansion media and stored at 4° C.
Experimental Adipogenesis Progression Media: mesenchymal stem cell expansion media/1-100 μg/mL RHAMM antagonist peptides.
Adipogenesis Maintenance Media: mesenchymal stem cell expansion media containing antibiotics and antimycotics.
Negative Control Media: Dulbecco's Modified Eagle's Medium (DMEM)/10% normal calf serum.
Pre-adipocyte stem cells including bone marrow mesenchymal stem cells and fibroblasts were propagated using standard tissue culture methods. Cells were trypsinized to remove the cells from the substratum. The trypsin was neutralized and cells were counted using a hemocytometer. Cells were resuspended at 20,000 cells/mL in expansion media. 1 mL of cell suspension was plated per well of 48-well plate, with several wells left empty for blank well (blank control) staining.
Cells were incubated until they reached confluency. When cells were fully confluent, the expansion media was replaced with 0.5 mL of Adipogenesis Initiation Media. For negative controls (no insulin, no peptides), expansion media only was used at this step and for subsequent media changes. For all media changes, media was replaced as gently as possible to avoid disturbing the monolayer.
Cells were incubated in Adipogenesis Initiation Media for 72 hours at 37° C., 5% CO2. 0.5 mL media was then removed from each well, and replaced with 0.5 mL of either positive control or experimental Adipogenesis Progression Media per well. Cells were again incubated for 96 hours at 37° C., 5% CO2, after which time media was replaced every 48 hours with Adipogenesis Maintenance Media (0.5 mL of media was removed from each well and replaced with 0.5 mL Adipogenesis Maintenance Media per well). Media added to empty wells served as blank controls for blank well background staining. Cells were incubated in Adipogenesis Maintenance Medium for at least 96 hours at 37° C., 5% CO2 after which time media was replaced with Adipogenesis Maintenance Medium. Lipid droplets had appeared by the time Adipogenesis Maintenance Medium was initially added and continued to accumulate and increase in size for 7-14 days. Experiments were terminated between seven and fourteen days after the initial addition of Adipogenesis Maintenance Medium.
For quantification of Oil Red O staining, media was removed and cells were washed twice with PBS, using care to gently add the PBS. Cells were then fixed in 4% paraformaldehyde (0.5 mL/well) and incubated for 30 minutes. The fixation solution was then removed and wells were washed two times with 1 mL of phosphate buffered saline (PBS) and once with 1 mL Milli-Q water. 0.25 mL Oil Red O solution was added per well of 48-well plate, including to the wells lacking cells, but containing media. Cells were incubated for 15 minutes at room temperature. The staining solution was then removed and wells were washed two times with 1 mL of Milli-Q water and once with washing solution (63% isopropanol in water).
Adipogenesis was quantified using a spectrophotometer. 0.25 mL Dye Extraction Solution (isopropyl alcohol) was added per well, and the plate was set on an orbital shaker or platform rocker for 30 minutes. […]

[2] = test system: mammary fat pads of aged female rats; test: In vivo adipogenesis in mammary fat pads of aged female rats (microCT); set-up: species or system rat; conditions: eight-month-old female rats, 100 μg peptide in 100 μl collagen gel, 7 days, versus collagen only
Experimental: Peptides were also tested for their ability to stimulate adipogenesis in mammary fat pads of aged (8 month old) female rats in vivo. Mammary fat pads are rich in adipocyte progenitor cells.
Eight-month-old female Sprague Dawley rats (retired breeders) were injected with 100 μl collagen gel (Vitrogen) containing 100 μg peptide into the fourth right mammary fat pad, as depicted in FIG. 10. […] The collagen and peptides were injected at the top of the ROI nearest the nipple. The collagen and peptide diffuse into the fat pad following injection and active peptides target RHAMM-positive progenitor cells present in the fat pad. Collagen alone was injected into the fourth left mammary fat pad as a negative control.
Following injection of the collagen and peptide or collagen alone, animals were maintained on rat chow and water for 7 days and then euthanized. Micro-computed tomography (microCT) imaging of the […] was performed on animals using a Locus Ultra scanner (GE Healthcare, London, ON, Canada). The animals were imaged ex vivo with an X-ray tube voltage of 80 kV and a tube current of 55 mA. Nine hundred projections of data were acquired at an angular increment of 0.4 degrees around the rat in an exposure time of 16 ms. The data were then reconstructed into a 3D volume image with a voxel size of 154 μm. The subcutaneous mammary fat measured in 10×5×3 mm rectangular area (the region of interest (ROI)) below the nipple, avoiding measurement of underlying visceral fat (see the region labeled “fat pad” in FIG. 11). The amount of fat in the ROI was calculated as mass (mg) per ROI.

adipogenesis [3] = test: Adipogenic activity of peptides and peptide fragments, assay not specified; format: cell-based; conditions: assay not specified
Experimental: In the second approach, a series of truncations and alanine mutagenesis on peptide B were performed in order to identify the smallest active sequence. Fragments of peptide B were prepared and assayed for adipogenesis. First, fragments corresponding to the two halves of peptide B were prepared (KLKDENS (SEQ ID NO: 8) and SQLKSEVSK (SEQ ID NO: 13)).

dermis of aged rats = test: Rat dermal skin model of adipogenesis (injection into the dermis of aged rats); format: in vivo; conditions: injected into the dermis of aged rats / rat skin
[4] = test system: human primary cells directly isolated from human subcutaneous fat or dermal tissue; test: Human primary cells isolated from subcutaneous fat or dermal tissue; format: cell-based
adipogenesis [5] = conditions: earlier reports, WO 2014/082042 and background; cited from earlier work

Row | Substance | specific activity among the 9-mer, 7-mer and 6-mer fragments ([1]; Assay 1) | adipogenic activity in Assay 1 [1] | adipogenesis in vivo in mammary fat pads [2] | adipogenic activity (adipogenesis [3]) | adipogenic effects in rat skin (dermis of aged rats) | adipogenic activity in human primary cells [4] | adipogenic activity (adipogenesis [5]) | adipogenesis in vivo in mammary fat pads ([2]; listed as KTRASHHV) | adipogenesis quantified by Oil Red O staining, fold change relative to the negative control ([1]; Assay 1, peptide 5 μg/ml) | adipogenesis quantified by Oil Red O staining, fold change relative to the negative control ([1]; Assay 1, peptide 50 μg/ml)
1 | KSEVSK (listed as Homo sapiens) [reference compound] | highest specific activity | exhibit adipogenic activity | mammary fat pad enlargement | also found to be adipogenic | induce large fat pads | exhibited adipogenic activity | strongly adipogenic |  |  | 
2 | KTRAHHV (listed as Paenibacillus polymyxa) |  | ablated adipogenic activity | induce adipogenesis in vivo |  |  |  |  | able to induce adipogenesis in vivo |  | 
3 | KLKDENSQLK (listed as Homo sapiens) |  | exhibited activity | exhibited activity | has adipogenic activity; also recorded: are adipogenic |  |  |  |  | significant increase in adipogenesis | significant increase in adipogenesis
4 | KLKDENSQLR (listed as Erinaceus europaeus) |  | promising results | not subsequently shown to be adipogenic |  |  |  |  |  |  | 
